Eleven molecules from US8653096B2, “Chemokine receptor antagonists and methods of use thereof” (Millennium Pharmaceuticals, Inc., priority 2001, dated 2014) can be followed below.

pIC50: −log10 of the molar value. Bounds are passed on as bounds.

The first assay concerns the target T1, RANTES/MIP-1α chemokine receptor (CCR1) in THP-1 cell membranes (Homo sapiens, UniProt P32246).
T1 construct: Membranes were prepared from THP-1 cells (ATCC #TIB202); host or cells: THP-1 cells (membrane preparation)
T1 sequence (P32246 1-355): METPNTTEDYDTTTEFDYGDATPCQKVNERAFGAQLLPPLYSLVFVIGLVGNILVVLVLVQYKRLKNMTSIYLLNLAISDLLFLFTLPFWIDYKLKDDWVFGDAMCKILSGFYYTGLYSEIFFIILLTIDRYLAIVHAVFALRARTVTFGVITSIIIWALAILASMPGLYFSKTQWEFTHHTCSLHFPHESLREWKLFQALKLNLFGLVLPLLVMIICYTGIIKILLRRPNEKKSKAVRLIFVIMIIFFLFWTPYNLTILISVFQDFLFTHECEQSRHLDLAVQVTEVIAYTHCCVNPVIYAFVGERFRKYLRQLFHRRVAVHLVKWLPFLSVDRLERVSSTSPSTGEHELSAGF
The experiment in a line: Receptor binding assay: 125I-RANTES or 125I-MIP-1α binding to THP-1 cell membranes. The note with it: enantiomers resolved from the racemate on ChiralPak AD; test not named.
As for `CC(C)(O)c1ccc2c(c1)C(=CCCN1CCC(O)(c3ccc(Cl)cc3)C(C)(CO)C1)c1cccnc1CO2` (single isomer, unassigned) [Example 483-1, 4-(4-Chloro-phenyl)-3-hydroxymethyl-1-{3-[7-(hydroxyl-1-methyl-ethyl)-11H-10-oxa-1-aza-dibenzo[a,d]cyclohepten-5-ylidene]-propyl}-3-methyl-piperidine-4-ol], the “relative activity of resolved enantiomers” value is listed as “more active enantiomer”. As to `CC(C)(O)c1ccc2c(c1)C(=CCCN1CCC(O)(c3ccc(Cl)cc3)C(C)(CO)C1)c1cccnc1CO2` (single isomer, unassigned) [Example 483-2, 4-(4-Chloro-phenyl)-3-hydroxymethyl-1-{3-[7-(hydroxyl-1-methyl-ethyl)-11H-10-oxa-1-aza-dibenzo[a,d]cyclohepten-5-ylidene]-propyl}-3-methyl-piperidine-4-ol], the “relative activity of resolved enantiomers” value is recorded as “less active enantiomer”.

The same assay, now with this note: inhibitor concentration required for 50% inhibition of specific binding; 125I-RANTES or 125I-MIP-1α as ligand, THP-1 cell membranes; read-out: IC50.
Consider “5-Chloro-1′-[3-(5,11-dihydro-7-(2-methoxyethyl)oxy[1]benzoxepino[2,3-b]pyridin-5-ylidene)propyl]spiro[isobenzofuran-1(3H), 4′-piperidine] [Example 197]”, for which the pIC50 – broadly, −log10 of the IC50, conventionally taken in molar units – was > 6.00. The same measure, in the same setting: the result for “5-Chloro-1′-[3-(5,11-dihydro-7-methoxy[1]benzoxepino[2,3-b]pyridin-5-ylidene)propyl]spiro[isobenzofuran-1(3H), 4′-piperidine] [Example 91]” reads > 6.00; that for “8-[3-(5,11-Dihydro-7-methoxy[1]benzoxepino[2,3-b]pyridin-5-ylidene)propyl]-1-phenyl-1,3,8-triazaspiro[4,5]decan-4-one [Example 69]”, > 6.00. As to `CC(C)(O)c1ccc2c(c1)C(=CCCN1CC[C@](O)(c3ccc(Cl)cc3)[C@H](C#N)C1)c1cccnc1CO2` (relative stereo) [Example 479, Trans-4-(4-Chloro-phenyl)-4-hydroxy-1-{3-[7-(1-hydroxyl-1-methyl-ethyl)-11H-10-oxa-1-aza-dibenzo[a,d]cyclohepten-5-ylidene]-propyl}-piperidin-3-carbonitrile], the pIC50 is > 6.00. On the same count and under the same terms, the result for `CC(C)(O)c1ccc2c(c1)C(=CCCN1CC[C@@](O)(c3ccc(Cl)cc3)[C@H](C#N)C1)c1cccnc1CO2` (relative stereo) [Example 480, Cis-4-(4-Chloro-phenyl)-4-hydroxy-1-{3-[7-(1-hydroxyl-1-methyl-ethyl)-11H-10-oxa-1-aza-dibenzo[a,d]cyclohepten-5-ylidene]-propyl}-piperidin-3-carbonitrile] reads > 6.00; that for `CC(C)(O)c1ccc2c(c1)C(=CCCN1CCC(O)(c3ccc(Cl)cc3)C(C)(CO)C1)c1cccnc1CO2` (single isomer, unassigned) [Example 483-1, 4-(4-Chloro-phenyl)-3-hydroxymethyl-1-{3-[7-(hydroxyl-1-methyl-ethyl)-11H-10-oxa-1-aza-dibenzo[a,d]cyclohepten-5-ylidene]-propyl}-3-methyl-piperidine-4-ol], > 6.00; that for `CC(C)(O)c1ccc2c(c1)C(=CCCN1CCC(O)(c3ccc(Cl)cc3)C(C)(CO)C1)c1cccnc1CO2` (single isomer, unassigned) [Example 483-2, 4-(4-Chloro-phenyl)-3-hydroxymethyl-1-{3-[7-(hydroxyl-1-methyl-ethyl)-11H-10-oxa-1-aza-dibenzo[a,d]cyclohepten-5-ylidene]-propyl}-3-methyl-piperidine-4-ol], > 5.00. Still for that read-out and setting: under `CCN(Cc1ccc(Cl)cc1)CC1CCN(CCC=C2c3cc(C(C)(C)O)ccc3OCc3ncccc32)C1` (stereo in doubt) [Example 526, (R)-2-{5-[3-(3-{[(4-Chloro-benzyl)-ethyl-amino]-methyl}-pyrrolidin-1-yl)-propylidene]5,11-dihydro-10-oxa-1-aza-dibenzo[a,d]cyclohepten-7-yl}-propan-2-ol] stands > 6.00; under `OC1(c2ccc(Cl)cc2)CCN(CCC=C2c3ccccc3CCc3ccccc32)CC1` [Example 1, 4-(4-Chlorophenyl)-1-[3-(10,11-dihydro-5H-dibenzo[a,d]cycloheptene-5-ylidene)propyl]piperidin-4-ol], > 6.00.

Consider `OC1(c2ccc(Cl)cc2)CCN(CCC=C2c3ccccc3COc3ccccc32)CC1` [Example 2, 4-(4-Chlorophenyl)-1-[3-(6,11-dihydrodibenz[b,e]oxepin-11-ylidene)propyl]piperidin-4-ol], for which the pIC50 was > 6.00. `OC1(c2ccc(Cl)cc2)CCN(CCC=C2c3ccccc3CSc3ccccc32)CC1` [Example 8, 4-(4-Chlorophenyl)-1-[3-(6,11-dihydro-dibenz[b,e]thiepin-11-ylidene)propyl]piperidin-4-ol]: the negative-log IC50 (pIC50) was > 6.00.
